Among the data in patent US12590091B2, “1H-pyrrolo[3,2-C]pyridine and 1H-pyrrolo[2,3-C]pyridine derivatives as TLR9 inhibitors for the treatment of fibrosis” (BRISTOL-MYERS SQUIBB COMPANY, priority 2020, dated 2026) are IC50 values, retold here.

Assay [1] concerns the target T1, human TLR9 (Homo sapiens, UniProt Q9NR96).
T1 construct: host or cells: HEK-Blue cells
T1 sequence (Q9NR96 26-1032): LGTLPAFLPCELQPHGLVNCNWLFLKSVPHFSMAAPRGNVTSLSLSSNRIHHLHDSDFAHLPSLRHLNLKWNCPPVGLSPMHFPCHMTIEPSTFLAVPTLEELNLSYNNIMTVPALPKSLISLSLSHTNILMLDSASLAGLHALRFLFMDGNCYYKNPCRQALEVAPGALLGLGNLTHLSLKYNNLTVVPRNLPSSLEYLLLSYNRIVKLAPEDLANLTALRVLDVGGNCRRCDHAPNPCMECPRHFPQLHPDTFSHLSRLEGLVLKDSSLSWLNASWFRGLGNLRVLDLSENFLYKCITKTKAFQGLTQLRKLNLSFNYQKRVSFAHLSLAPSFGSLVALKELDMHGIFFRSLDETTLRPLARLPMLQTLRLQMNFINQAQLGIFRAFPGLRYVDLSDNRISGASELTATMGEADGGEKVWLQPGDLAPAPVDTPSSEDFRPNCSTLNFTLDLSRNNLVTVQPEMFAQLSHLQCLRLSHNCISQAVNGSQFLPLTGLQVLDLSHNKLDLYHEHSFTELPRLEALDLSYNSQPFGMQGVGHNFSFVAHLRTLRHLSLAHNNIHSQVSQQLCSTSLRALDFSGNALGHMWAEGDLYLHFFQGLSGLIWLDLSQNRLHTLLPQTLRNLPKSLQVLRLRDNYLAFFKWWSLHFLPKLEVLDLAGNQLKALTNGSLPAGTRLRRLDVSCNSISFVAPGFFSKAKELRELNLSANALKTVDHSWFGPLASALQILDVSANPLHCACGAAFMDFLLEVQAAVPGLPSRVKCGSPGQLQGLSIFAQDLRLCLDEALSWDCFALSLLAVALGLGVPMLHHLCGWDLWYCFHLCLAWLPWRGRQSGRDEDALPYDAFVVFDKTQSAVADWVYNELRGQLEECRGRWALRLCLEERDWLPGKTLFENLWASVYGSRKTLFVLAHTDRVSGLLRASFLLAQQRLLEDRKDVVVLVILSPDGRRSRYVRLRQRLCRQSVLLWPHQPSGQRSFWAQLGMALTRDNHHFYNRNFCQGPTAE
The experiment in a line: TLR9 inhibition reporter assay (HEK-Blue cells, SEAP reporter). It counts as cell-based. Conditions: HEK-Blue cells overexpressing human TLR9, stimulated with ODN2006 5 nM, 22 hour incubation. On the procedure:
(§1) TLR7/8/9 Inhibition Reporter Assays
HEK-Blue™-cells (Invivogen) overexpressing human TLR7, TLR8 or TLR9 receptors were used for screening inhibitors of these receptors using an inducible SEAP (secreted embryonic alkaline phosphatase) reporter gene under the control of the IFN-β minimal promoter fused to five NF-κB and AP-1-binding sites. Briefly, cells are seeded into Greiner 384 well plates (15000 cells per well for TLR7, 20,000 for TLR8 and 25,000 for TLR9) and then treated with test compounds in DMSO to yield a final dose response concentration range of 0.05 nM-50 μM. […] After a 22 hour incubation at 37° C., 5% CO2, SEAP levels are determined with the addition of HEK-Blue™ Detection reagent (Invivogen), a cell culture medium that allows for detection of SEAP, according to manufacturer's specifications. The percent inhibition is determined as the % reduction in the HEK-Blue signal present in wells treated with agonist plus DMSO alone compared to wells treated with a known inhibitor.

In assay [2] the target is T2, human TLR7 (Homo sapiens, UniProt Q9NYK1).
T2 construct: host or cells: HEK-Blue cells
T2 sequence (Q9NYK1 27-1049): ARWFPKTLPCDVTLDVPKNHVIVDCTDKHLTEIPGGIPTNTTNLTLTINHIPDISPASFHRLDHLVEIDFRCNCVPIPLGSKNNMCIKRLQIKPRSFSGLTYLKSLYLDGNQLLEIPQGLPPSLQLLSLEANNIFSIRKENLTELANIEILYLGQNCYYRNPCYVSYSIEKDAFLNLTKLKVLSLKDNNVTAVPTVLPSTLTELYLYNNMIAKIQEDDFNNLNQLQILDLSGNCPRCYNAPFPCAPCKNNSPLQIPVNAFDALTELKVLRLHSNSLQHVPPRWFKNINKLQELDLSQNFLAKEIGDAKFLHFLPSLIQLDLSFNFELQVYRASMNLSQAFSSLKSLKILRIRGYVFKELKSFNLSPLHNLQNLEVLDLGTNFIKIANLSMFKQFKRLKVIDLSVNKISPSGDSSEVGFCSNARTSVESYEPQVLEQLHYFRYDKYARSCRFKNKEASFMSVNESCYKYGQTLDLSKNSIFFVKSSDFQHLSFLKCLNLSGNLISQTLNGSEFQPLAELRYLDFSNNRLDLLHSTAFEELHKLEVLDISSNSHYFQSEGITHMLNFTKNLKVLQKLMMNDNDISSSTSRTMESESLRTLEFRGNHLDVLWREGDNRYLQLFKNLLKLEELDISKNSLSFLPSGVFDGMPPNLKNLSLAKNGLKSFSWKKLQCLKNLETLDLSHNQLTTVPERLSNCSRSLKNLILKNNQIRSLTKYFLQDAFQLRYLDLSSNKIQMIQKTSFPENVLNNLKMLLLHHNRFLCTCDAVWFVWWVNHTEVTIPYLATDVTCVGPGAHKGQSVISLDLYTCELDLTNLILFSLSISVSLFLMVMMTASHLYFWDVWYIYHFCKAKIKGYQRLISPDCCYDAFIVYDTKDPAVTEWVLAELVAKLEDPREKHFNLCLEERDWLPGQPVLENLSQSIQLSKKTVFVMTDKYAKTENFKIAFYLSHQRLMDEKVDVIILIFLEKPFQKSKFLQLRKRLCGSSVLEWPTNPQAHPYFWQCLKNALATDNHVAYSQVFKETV
The experiment in a line: TLR7 inhibition reporter assay (HEK-Blue cells, SEAP reporter). It counts as cell-based. The conditions noted are these: HEK-Blue cells overexpressing human TLR7, stimulated with gardiquimod 7.5 μM, 22 hour incubation. As to the method: as §1
HEK-Blue™-cells (Invivogen) overexpressing human TLR7, TLR8 or TLR9 receptors were used for screening inhibitors of these receptors using an inducible SEAP (secreted embryonic alkaline phosphatase) reporter gene under the control of the IFN-β minimal promoter fused to five NF-κB and AP-1-binding sites. Briefly, cells are seeded into Greiner 384 well plates (15000 cells per well for TLR7, 20,000 for TLR8 and 25,000 for TLR9) and then treated with test compounds in DMSO to yield a final dose response concentration range of 0.05 nM-50 μM. After a 30 minute compound pre-treatment at room temperature, the cells are then stimulated with a TLR7 ligand (gardiquimod at a final concentration of 7.5 μM), TLR8 ligand (R848 at a final concentration of 15.9 μM) or TLR9 ligand (ODN2006 at a final concentration of 5 nM) to activate NF-κB and AP-1 which induce the production of SEAP. After a 22 hour incubation at 37° C., 5% CO2, SEAP levels are determined with the addition of HEK-Blue™ Detection reagent (Invivogen), a cell culture medium that allows for detection of SEAP, according to manufacturer's specifications. The percent inhibition is determined as the % reduction in the HEK-Blue signal present in wells treated with agonist plus DMSO alone compared to wells treated with a known inhibitor.
A general note: In a reporter assay the amount or activity of a reporter protein is the signal.

For the compound `Cc1nc(-c2ccc(CN3C[C@H]4CC[C@@H]3CN4CC(C)(C)CO)cc2)cc2c1cc(-c1ccc(S(C)(=O)=O)cc1)n2C` [Example 45, 3-((1R,4R)-5-(4-(1,4-Dimethyl-2-(4-(methylsulfonyl)phenyl)-1H-pyrrolo[3,2-c]pyridin-6-yl)benzyl)-2,5-diazabicyclo[2.2.2]octan-2-yl)-2,2-dimethylpropan-1-ol], the IC50 (as a rule, the concentration that gives 50% inhibition) is 68 nM in assay [1] and 750 nM in assay [2].

In assay [1], `Cc1nc(-c2ccc(N3CCS(=O)(=O)CC3)cc2)cc2c1cc(-c1ccc(S(C)(=O)=O)cc1)n2C` [Example 85, 4-(4-(1,4-dimethyl-2-(4-(methylsulfonyl)phenyl)-1H-pyrrolo[3,2-c]pyridin-6-yl)phenyl)thiomorpholine 1,1-dioxide] gave an IC50 of 2400 nM. This counts as single-digit micromolar. Regarding `Cc1nc(-c2ccc(N3CCOCC3)cc2)cc2c1cc(-c1ccc(S(C)(=O)=O)cc1)n2C` [Example 86, 4-(4-(1,4-dimethyl-2-(4-(methylsulfonyl)phenyl)-1H-pyrrolo[3,2-c]pyridin-6-yl)phenyl)morpholine], the midpoint of inhibition in assay [1], the IC50, lay at 1070 nM. As for `Cc1nc(-c2ccc(C3(O)CC4CCC(C3)N4C(C)C)cc2F)cc2c1cc(-c1ccc(S(C)(=O)=O)cc1)n2C` [Example 103, (1R,3r,5S)-3-(4-(1,4-dimethyl-2-(4-(methylsulfonyl)phenyl)-1H-pyrrolo[3,2-c]pyridin-6-yl)-3-fluorophenyl)-8-isopropyl-8-azabicyclo[3.2.1]octan-3-ol], it took 296 nM to reach half-maximal inhibition in assay [1] (IC50).

Regarding `Cc1nc(-c2ccc(N3CCN(CCc4ccc(I)cc4)CC3)cc2)cc2c1cc(-c1ccc(S(C)(=O)=O)cc1)n2C` [Example 110, 6-(4-(4-(4-iodophenethyl)piperazin-1-yl)phenyl)-1,4-dimethyl-2-(4-(methylsulfonyl)phenyl)-1H-pyrrolo[3,2-c]pyridine], the IC50 in assay [1] turned out to be 58 nM. The same measure, in the same setting: with `Cc1nc(-c2ccc(N3CCN(CCc4ccc(Br)cc4)CC3)cc2)cc2c1cc(-c1ccc(S(C)(=O)=O)cc1)n2C` [Example 111, 6-(4-(4-(4-bromophenethyl)piperazin-1-yl)phenyl)-1,4-dimethyl-2-(4-(methylsulfonyl)phenyl)-1H-pyrrolo[3,2-c]pyridine] the figure was 113 nM; with `Cc1nc(-c2ccc(N3CCN(Cc4ccc(I)cc4)CC3)cc2)cc2c1cc(-c1ccc(S(C)(=O)=O)cc1)n2C` [Example 112, 6-(4-(4-(4-iodobenzyl)piperazin-1-yl)phenyl)-1,4-dimethyl-2-(4-(methylsulfonyl)phenyl)-1H-pyrrolo[3,2-c]pyridine], 87 nM; with `Cc1nc(-c2ccc(N3CCN(Cc4ccc(Br)cc4)CC3)cc2)cc2c1cc(-c1ccc(S(C)(=O)=O)cc1)n2C` [Example 113, 6-(4-(4-(4-bromobenzyl)piperazin-1-yl)phenyl)-1,4-dimethyl-2-(4-(methylsulfonyl)phenyl)-1H-pyrrolo[3,2-c]pyridine], 153 nM.

As for `Cc1nc(-c2ccc(CN3CCN(CCC(C)(C)O)CC3)cc2)cc2c1cc(-c1ccc(S(C)(=O)=O)cc1)n2C(F)F` [Example 117, 4-[4-[[4-[1-(difluoromethyl)-4-methyl-2-(4-methylsulfonylphenyl)pyrrolo[3,2-c]pyridin-6-yl]phenyl]methyl]piperazin-1-yl]-2-methyl-butan-2-ol], the IC50 in assay [1] is 557 nM; in assay [2] it was 7800 nM.

In the case of `COc1nc(-c2ccc(N3CCN(C(C)C)CC3)cc2)cc2c1cc(-c1ccc(S(C)(=O)=O)cc1)n2C` [Example 119, 6-[4-(4-isopropylpiperazin-1-yl)phenyl]-4-methoxy-1-methyl-2-(4-methylsulfonylphenyl) pyrrolo[3,2-c]pyridine], the IC50 in assay [1] was determined as 543 nM. As to `COc1nc(-c2ccc(CN3CCN(C(C)C)CC3)cc2)cc2c1cc(-c1ccc(S(C)(=O)=O)cc1)n2C` [Example 126, 6-(4-((4-isopropylpiperazin-1-yl)methyl)phenyl)-4-methoxy-1-methyl-2-(4-(methylsulfonyl)phenyl)-1H-pyrrolo[3,2-c]pyridine], the midpoint of inhibition in assay [1], the IC50, lay at 1260 nM.

In assay [1], `CC(C)N1CCN(Cc2ccc(-c3cc4c(cc(-c5ccc(S(C)(=O)=O)cc5)n4C)c(N4CCOCC4)n3)cc2)CC1` [Example 127, 4-(6-(4-((4-isopropylpiperazin-1-yl)methyl)phenyl)-1-methyl-2-(4-(methylsulfonyl)phenyl)-1H-pyrrolo[3,2-c]pyridin-4-yl)morpholine] came in with an IC50 of 422 nM.
